{"source": "paper PMC10374445", "about": "(Nature Chemical Biology, 2023)", "key": {"CydDC [1]": {"target": "T1, CydDC (Escherichia coli, UniProt P23886+P29018)", "T1 construct": "gene cydC; full-length heterodimer, C-terminal His6 on CydC, from pTTQ18 (pcydDC) in E. coli BL21 pLysS (DE3); purified in DDM (ATPase assays) or LMNG (cryo-EM)", "assay": "single-particle cryo-EM structure", "type": "binding", "conditions": "IFasym apo state, active turnover"}, "CydDC [2]": {"target": "T2, CydDC (Escherichia coli, UniProt P23886+P29018, P23886:E500Q)", "T2 construct": "gene cydC; full-length heterodimer, C-terminal His6 on CydC, from pTTQ18 (pcydDC) in E. coli BL21 pLysS (DE3); purified in DDM (ATPase assays) or LMNG (cryo-EM)", "T2 sequence (P23886 whole entry E500Q)": "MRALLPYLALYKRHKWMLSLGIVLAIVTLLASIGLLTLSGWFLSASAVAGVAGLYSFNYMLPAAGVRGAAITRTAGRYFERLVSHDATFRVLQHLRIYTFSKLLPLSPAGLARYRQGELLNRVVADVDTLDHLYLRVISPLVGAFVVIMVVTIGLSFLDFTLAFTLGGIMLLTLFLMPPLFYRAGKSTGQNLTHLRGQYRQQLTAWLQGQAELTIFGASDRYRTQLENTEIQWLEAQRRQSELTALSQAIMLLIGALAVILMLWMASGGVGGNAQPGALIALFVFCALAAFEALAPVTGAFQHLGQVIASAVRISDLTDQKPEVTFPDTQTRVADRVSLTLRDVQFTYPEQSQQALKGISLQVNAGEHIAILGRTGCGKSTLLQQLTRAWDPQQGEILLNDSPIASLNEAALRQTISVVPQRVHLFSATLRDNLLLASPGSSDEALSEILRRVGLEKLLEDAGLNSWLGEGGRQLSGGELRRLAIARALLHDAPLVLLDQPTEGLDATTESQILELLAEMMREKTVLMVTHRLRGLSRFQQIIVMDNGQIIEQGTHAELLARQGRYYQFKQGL", "T2 sequence (P29018 whole entry)": "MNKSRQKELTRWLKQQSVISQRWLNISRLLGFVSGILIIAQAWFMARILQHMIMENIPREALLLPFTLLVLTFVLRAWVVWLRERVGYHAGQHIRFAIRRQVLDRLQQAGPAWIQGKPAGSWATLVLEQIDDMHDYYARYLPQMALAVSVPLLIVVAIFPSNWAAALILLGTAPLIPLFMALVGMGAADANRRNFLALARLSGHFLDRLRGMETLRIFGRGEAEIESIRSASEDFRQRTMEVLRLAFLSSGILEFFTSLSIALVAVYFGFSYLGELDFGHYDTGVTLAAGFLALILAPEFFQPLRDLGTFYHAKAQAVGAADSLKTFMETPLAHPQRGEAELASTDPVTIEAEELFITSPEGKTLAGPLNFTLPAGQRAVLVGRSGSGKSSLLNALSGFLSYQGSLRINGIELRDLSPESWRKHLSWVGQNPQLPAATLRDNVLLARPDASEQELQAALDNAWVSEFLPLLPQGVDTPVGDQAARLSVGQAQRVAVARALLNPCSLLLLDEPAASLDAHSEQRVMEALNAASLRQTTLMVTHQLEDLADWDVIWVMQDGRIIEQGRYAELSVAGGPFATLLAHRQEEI", "assay": "single-particle cryo-EM structure", "conditions": "Occ return apo state; both nucleotide-binding sites; turnover dataset with heme, ATP and Mg2+"}, "[3]": {"test_system": "Nc1ncnc2c1ncn2[C@@H]1O[C@H](COP(=O)(O)OP(=O)(O)OP(=O)(O)O)[C@@H](O)[C@H]1O", "assay": "purified protein", "conditions": "0.3 µM heme, 3 mM MgCl2, pH 7.0, 37 °C, 0.02% DDM"}}}
{"compound": "Nc1ncnc2c1ncn2[C@@H]1O[C@H](COP(=O)(O)OP(=O)(O)O)[C@@H](O)[C@H]1O", "note": "[ADP]", "values": [{"measurement": "single-particle cryo-EM structure", "setting": "CydDC [1]; site NBS of CydC, with Pi", "value": "obtained from the turnover dataset of CydDC to ADP and Pi"}]}
{"compound": "Nc1ncnc2c1ncn2[C@@H]1O[C@H](COP(=O)(O)OP(=O)(O)OP(=O)(O)O)[C@@H](O)[C@H]1O", "note": "[ATP]", "values": [{"measurement": "single-particle cryo-EM structure", "setting": "CydDC [1]; degenerate site NBS of CydD", "value": "NBS^D conformations in the Occreturnapo (ATP), IFasymapo (ATP)"}, {"measurement": "single-particle cryo-EM structure", "setting": "CydDC [2]", "value": "The left panel shows a close-up view of ATP bound to NBS^D"}]}
{"compound": "CydDC (Escherichia coli K-12)", "values": [{"measurement": "Km", "setting": "[3]", "value": "91.9 ± 9.7", "unit": "µM"}]}
